Measured values as given in US12404252B2, “Salt of 2-amino-2-(2-(1-decyl-1H-1,2,3-triazol-4-yl)ethyl)propane-1,3-diol, and pharmaceutical composition containing same” (NEXTGEN BIOSCIENCE CO., LTD, priority 2021, dated 2025).
Like-named read-outs stand apart in the source and are kept apart here.

Tests used:
[1] = tested on: unilateral ureteral obstruction (UUO) model; assay: Unilateral ureteral obstruction (UUO) renal fibrosis model; type: in vivo; conditions: UUO mice, 30 mg/kg/day orally, 2 weeks
Experimental: The antifibrotic effect of Compound 1a in renal disease was evaluated using the unilateral ureteral obstruction (UUO) model, which is a renal fibrotic disease model. Kidney fibrosis was induced by unilateral ureteral obstruction of mice, and then Compound 1a at 10, 30, and 90 mg/kg/day and the positive control substance telmisartan at 30 mg/kg/day were orally administered to the mice once a day for 2 weeks.

[2] = tested on: adenine-induced chronic kidney disease model; assay: Adenine-induced chronic kidney disease model; type: in vivo; conditions: adenine-induced CKD mice, 10 mg/kg/day orally, 3 weeks
Experimental: The antifibrotic effect of Compound 1a was evaluated using an adenine-induced chronic kidney disease model. 0.5% adenine (in 0.5% CMC) was orally administered to mice for 4 weeks to induce chronic kidney disease, and Compound 1a at 10, 30, and 90 mg/kg/day and the positive control substance telmisartan 10 mg/kg/day were administered orally to the mice for 3 weeks, followed by measurement of serum creatinine, serum BUN, and kidney hydroxyproline, and histopathology. In addition, the tubular-interstitial index value was determined based on the above measurement results.

[3] = tested on: dextran sulfate sodium (DSS)-induced colitis model; assay: DSS-induced colitis mouse model, disease activity index; type: in vivo; conditions: DSS mice
Experimental: The effectiveness of Compound 1a against inflammatory bowel disease was evaluated using the dextran sulfate sodium (DSS)-induced colitis model. In the mouse model, inflammatory bowel disease was induced by administering DSS to mice at a concentration of 2.5% via drinking water. Mice were divided into a test group administered Compound 1a, a positive control group administered ozanimod or MTX (methotrexate), a vehicle group, and a normal control group, and each group had n=10. Compound 1, a compound of the present invention, was orally administered at doses of 5 and 10 mg/kg once a day for 7 days to the inflammatory bowel disease-induced model, and ozanimod as a positive control was administered orally at a dose of 5 mg/kg once a day, and MTX (methotrexate) as a positive control was administered intraperitoneally at a dose of 3 mg/kg three times a week.
DAI represents the total score of weight loss relative to initial weight, stool consistency, and degree of intestinal bleeding of the mouse. The criteria for calculation of DAI are shown in Table 10 below, and DAI was evaluated on days 0, 1, 2, 3, 4, 5, 6, 7, and 8.

[4] = Hygroscopicity test by DVS; type: physicochemical; conditions: for DVS remark (adsorption at 90% RH): water adsorption at 90% RH
Description: Dynamic vapor sorption (DVS) is a method that has been used for a long time to investigate the interactions between active pharmaceutical ingredients (APIs), and pharmaceutical preparations and water. Here, to analyze the water absorption rate of a sample at a specific temperature, measurements are made by exposing the sample to the desired relative humidity using a DVS water sorption analyzer (hygroscopicity analyzer) until the change in weight of the sample stabilizes.

[5] = Oxidation stability test (30% H2O2); type: physicochemical
[6] = pKa of the free base; type: physicochemical; conditions: natural conditions
Experimental: The method for preparing the salt of the present invention and the process of selecting the salt thereby are as follows. […] Specifically, acids that were appropriate for matching the pKa of the free base of Compound 1 described above were calculated by computer, and these acids were mainly identified as acids having a pKa of about 2 to 5.

[7] = target: hERG potassium ion channel (Homo sapiens, UniProt Q12809)
Sequence of hERG potassium ion channel (Q12809 whole entry): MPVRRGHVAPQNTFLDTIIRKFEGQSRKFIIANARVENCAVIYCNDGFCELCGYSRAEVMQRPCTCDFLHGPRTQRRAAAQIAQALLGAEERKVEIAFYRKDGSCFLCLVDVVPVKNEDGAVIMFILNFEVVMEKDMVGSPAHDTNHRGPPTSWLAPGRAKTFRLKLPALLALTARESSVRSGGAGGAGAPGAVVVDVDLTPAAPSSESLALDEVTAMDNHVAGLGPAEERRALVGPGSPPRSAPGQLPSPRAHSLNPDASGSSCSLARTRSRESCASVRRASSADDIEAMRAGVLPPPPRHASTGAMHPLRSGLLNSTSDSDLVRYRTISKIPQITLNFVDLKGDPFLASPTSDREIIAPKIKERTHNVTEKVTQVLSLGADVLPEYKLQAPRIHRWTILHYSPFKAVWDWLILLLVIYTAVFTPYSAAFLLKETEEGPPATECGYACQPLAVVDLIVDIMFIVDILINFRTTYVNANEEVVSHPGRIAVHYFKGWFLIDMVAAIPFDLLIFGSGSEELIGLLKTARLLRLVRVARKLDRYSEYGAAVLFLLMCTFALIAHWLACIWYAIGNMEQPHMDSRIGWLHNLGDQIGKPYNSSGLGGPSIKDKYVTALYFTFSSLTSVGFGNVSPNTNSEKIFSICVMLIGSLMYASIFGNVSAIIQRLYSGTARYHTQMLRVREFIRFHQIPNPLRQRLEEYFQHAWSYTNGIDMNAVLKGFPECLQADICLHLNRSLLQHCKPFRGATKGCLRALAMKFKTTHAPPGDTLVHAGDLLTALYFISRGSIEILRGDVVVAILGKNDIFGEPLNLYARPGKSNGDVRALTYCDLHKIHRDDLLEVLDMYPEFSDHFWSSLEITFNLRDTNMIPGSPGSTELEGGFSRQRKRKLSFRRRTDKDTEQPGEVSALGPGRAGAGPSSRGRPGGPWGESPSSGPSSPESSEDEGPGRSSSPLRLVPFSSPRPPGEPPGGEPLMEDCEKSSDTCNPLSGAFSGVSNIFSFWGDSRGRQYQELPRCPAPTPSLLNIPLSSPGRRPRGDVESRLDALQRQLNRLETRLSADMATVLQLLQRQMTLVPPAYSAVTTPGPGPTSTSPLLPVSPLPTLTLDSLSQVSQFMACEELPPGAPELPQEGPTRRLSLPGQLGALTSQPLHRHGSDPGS

[8] = Solubility in aqueous media (HPLC); type: physicochemical; conditions: same conditions as Compound 1a, some samples
Experimental: The solubility of Compound 1a prepared in Example 1 was evaluated in several different media, including pH 1.2 hydrochloric acid buffer, pH 3.0 citrate buffer, pH 4.7 acetate buffer, pH 6.8 phosphate buffer, simulated gastric fluid, fasted-state simulated intestinal fluid, fed-state simulated intestinal fluid, and water. About 2.17 mg of sample (based on the free base of Compound 1) for each medium was taken into a 2-mL transparent glass vial and […] of medium was added (constituents of the salt were considered Compound 1: counterion=1:0.5; target concentration: 2 mg/mL). The mixture was stirred using a magnetic stirrer at 250 RPM for 24 hours at 25° C. Next, the pH and appearance of the mixture were recorded and the mixture was filtered through a MultiScreen® HTS-HV 96-well plate (manufactured by Merck; 0.45-μm hydrophilic, low-protein-binding Durapore® membrane). Solubility was determined using HPLC, and a calibration curve was created by injecting a known concentration of Compound 1a. The filtered sample was injected (diluted appropriately as necessary) and the concentration of Compound 1a (mg/mL) in the filtrate was calculated from the calibration curve (taking salt coefficient into account). The analysis results are as follows.

[9] = Standard stock solution stability, 40° C./75±5% RH; type: physicochemical; conditions: 40° C./75% RH
Experimental: The stability of the crystalline compound was examined at 40° C./75±5% RH. Physical stability was examined through comparative XRPD analysis before and after the test, and chemical stability was examined by HPLC method. The experimental conditions used in the stability test for Compound 1a and the test results are as follows.
40° C./75±5% RH: Conditions in which the vial was open and upright.
(§1) A required amount (˜1 mg) of solid material was dissolved in 1 mL of a diluent (1:1 methanol/water), and the prepared solution was analyzed by HPLC.

[10] = Standard stock solution stability, 60° C./75±5% RH; type: physicochemical; conditions: 2 weeks under 60° C./75±5% RH
Experimental: The stability of the crystalline compound was under 60° C./75±5% RH conditions, and the purity thereof was examined by HPLC method. The experimental conditions used in the stability test for Compound 1a and the test results are as follows.
60° C./75±5% RH: Conditions in which the vial was open and upright.
as §1

[11] = pH stability and salinity stability, 40±2° C.; type: physicochemical
Experimental: pH and salinity stability tests for the hemifumirate salt of Compound 1 were performed at an initial target concentration of 2 mg/mL. The pH and salinity stability conditions used to evaluate the hemifumirate salt of Compound 1 and the evaluation results are as follows.
• 40±2° C.: Conditions in which the vial was capped and upright • Storage container for stability: 2-mL screw neck clear glass vial (manufactured by La-Pha-Pack) • Target concentration: ˜ 2 mg/mL (adding the sample to 1 mL of medium, followed by vortexing for 30 seconds) • 500 μL of the test mixture was dissolved in 500 μL of a diluent (1:1 methanol/water), and the prepared solution was analyzed by HPLC without filtration.

[12] = Photostability test; type: physicochemical
Experimental: For a photostability test, 10 mg of Compound 1a was exposed to 1.2 million lux hours of ultraviolet and visible light at room temperature. For an oxidation stability test, 0.2 mL of 30% H2O2 and 1 mg of Compound 1a were placed in a 2-mL vial and stored at 25° C. for up to 24 hours. The photostability and oxidation stability conditions used to evaluate the fumarate salt of Compound 1 and the evaluation results are as follows.

[13] = Corrosion of a sample stored together with the substance at 60° C.; type: physicochemical; conditions: stored together with the sample for 2 weeks at 60° C.
Experimental: FIG. 12 depicts photograph showing the results of checking the degree of corrosion of a sample after storing each of the free base of Compound 1, Compound 1a, and a hydrochloride salt of Compound 1 together with the sample under 60° C. conditions for 2 weeks.

[14] = pH stability and salinity stability, 40±2° C.; type: physicochemical; remark: listed apart in the source

## CCCc1nc2c(C)cc(-c3nc4ccccc4n3C)cc2n1Cc1ccc(-c2ccccc2C(=O)O)cc1 [telmisartan, reference compound]
[1]
  Kidney hydroxyproline: statistically significantly reduced
[2]
  kidney fibrosis (tubular-interstitial index): statistically significantly decreased

## CN(Cc1cnc2nc(N)nc(N)c2n1)c1ccc(C(=O)N[C@@H](CCC(=O)O)C(=O)O)cc1 [MTX, methotrexate, reference compound]
[3]; 3 mg/kg intraperitoneally three times a week
  disease activity index (DAI) compared to negative control group (vehicle): statistically significantly decreased

## CCCCCCCCCCn1cc(CCC(N)(CO)CO)nn1.O=C(O)CCCCC(=O)O [compound 5]
[4]
  DVS remark (adsorption at 90% RH): 22.46%

## CC(=O)O.CCCCCCCCCCn1cc(CCC(N)(CO)CO)nn1 [compound 3]
[4]
  DVS remark (adsorption at 90% RH): 34.33%

## CCCCCCCCCCn1cc(CCC(N)(CO)CO)nn1 [Compound 1, 2-Amino-2-(2-(1-decyl-1H-1,2,3-triazol-4-yl)ethyl) propane-1,3-diol]
[5]; oxidative stress conditions, after 20 hours
  decomposition rate: ≥ 8%
[6]
  pKa: 8.12
[7]; 1 μM
  compensated suppression rate (%) of hERG channel currents: 9.94±1.96%
[7]; 3 μM
  compensated suppression rate (%) of hERG channel currents: 13.98±4.48%
[7]; 10 μM
  compensated suppression rate (%) of hERG channel currents: 35.03±12.09%
[7]; 30 μM
  compensated suppression rate (%) of hERG channel currents: 82.62±7.31%

## CCCCCCCCCCn1cc(CCC(N)(CO)CO)nn1 [Compound 1b, 2-amino-2-(2-(1-decyl-1H-1,2,3-triazol-4-yl)ethyl) propane-1,3-diol]
[4]; 90% RH, listed as Example 2
  hygroscopicity (DVS evaluation, in words): low hygroscopicity
[4]; listed as Example 2
  DVS remark (adsorption at 90% RH): 4.563%

## CC(C)Oc1ccc(-c2nc(-c3cccc4c3CC[C@@H]4NCCO)no2)cc1C#N [ozanimod, reference compound]
[3]; 5 mg/kg orally once a day
  disease activity index (DAI) compared to negative control group (vehicle): statistically significantly decreased

## CC(=O)O.CCCCCCCCCCn1cc(CCC(N)(CO)CO)nn1 [compound 4]
[4]
  DVS remark (adsorption at 90% RH): 33.67%

## CCCCCCCCCCn1cc(CCC(N)(CO)CO)nn1.O=C(O)CC(O)(CC(=O)O)C(=O)O [compound 6]
[4]
  DVS remark (adsorption at 90% RH): 22.80%

## CCCCCCCCCCn1cc(CCC(N)(CO)CO)nn1.O=C(O)CCC(=O)O [compound 2]
[4]
  DVS remark (adsorption at 90% RH): 19.42%

## CCCCCCCCCCn1cc(CCC(N)(CO)CO)nn1.Cl [Comparative Example 1, reference compound]
[4]; natural conditions
  behaviour in natural conditions: exhibited deliquescence
[4]
  DVS remark (adsorption at 90% RH): 49.5%
[4]; listed as hydrochloride salt of Compound 1
  DVS remark (adsorption at 90% RH): 49.5%
[8]
  appearance in aqueous media: undissolved suspension form in some samples
[9]; 1-week
  Purity %: 99.00%
[9]; 1-week, listed as Hydrochloride salt of Compound 1
  XRPD (physical stability): Turned into liquid
[9]; 1-week, listed as hydrochloride salt of Compound 1
  XRPD (physical stability): turned into a liquid phase
[9]; 2-week
  Purity %: 99.22%
[9]; Initial
  Purity %: 99.34%
  XRPD (physical stability): Crystalline
[10]
  change in appearance: turned into a liquid phase
[11]; Saline (0.9% NaCl)/40° C., Initial
  Purity %: 99.43%
[11]; pH 6.8 phosphate buffer/40° C., 1-week
  Purity %: 98.04%
[11]; pH 6.8 phosphate buffer/40° C., Initial
  Purity %: 98.93%
[12]; Photostability 1.2 million lux hours exposed
  Purity %: 98.75%
[12]; Photostability 1.2 million lux hours unexposed
  Purity %: 99.35%
[5]; 30% H2O2 60° C. for 20 hours
  Purity %: 91.23%
[13]
  degree of corrosion of the sample: corrosion occurred
[14]; Saline (0.9% NaCl)/40° C., 1-week, listed as Hydrochloride salt of Compound 1
  Purity %: 98.00%
[14]; Saline (0.9% NaCl)/40° C., 1-week, listed as hydrochloride salt of Compound 1
  Purity %: ≤ 98%
[14]; pH 6.8 phosphate buffer/40° C., 2-week, listed as Hydrochloride salt of Compound 1
  Purity %: 97.87%
[14]; pH 6.8 phosphate buffer/40° C., 2-week, listed as hydrochloride salt of Compound 1
  Purity %: less than 98%
